According to ChEMBL document CHEMBL5055685, “Discovery of the First Potent IDO1/IDO2 Dual Inhibitors: A Promising Strategy for Cancer Immunotherapy” (J Med Chem, 2021):
The source made the active and inactive calls. No cut-off for these calls is given here.

Assays:
[1] = target: Serine/threonine-protein kinase 4 (Homo sapiens) (UniProt Q13043); test: Inhibition of MST1 (unknown origin) at 1 uM
[2] = target: Serine/threonine-protein kinase ULK1 (Homo sapiens) (UniProt O75385); test: Inhibition of ULK1 (unknown origin) at 1 uM
[3] = target: Insulin-like growth factor 1 receptor (Homo sapiens) (UniProt P08069); test: Inhibition of IGF1R (unknown origin) at 1 uM
[4] = AUC (0 to t) in Sprague-Dawley rat at 50 mg/kg, po; type: ADME, organism-based; design: dose 50 mg/kg, route po; conditions: in vivo
[5] = target: Serine/threonine-protein kinase NLK (Homo sapiens) (UniProt Q9UBE8); test: Inhibition of NLK (unknown origin) at 1 uM
[6] = target: Serine/threonine-protein kinase pim-3 (Homo sapiens) (UniProt Q86V86); test: Inhibition of PIM3 (unknown origin) at 1 uM
Mus musculus = test: In vivo inhibition of IDO2 in BALB/c mouse xenografted with human HCT-116 cells assessed as suppression of IDO2 expression in tumor by immunohistochemical assay; type: functional, organism-based
[7] = target: Calcium/calmodulin-dependent protein kinase type 1D (Homo sapiens) (UniProt Q8IU85); test: Inhibition of CAMK1D (unknown origin) at 1 uM
[8] = AUC (0 to infinity) in Sprague-Dawley rat at 50 mg/kg, po; type: ADME, organism-based; design: time infinity, dose 50 mg/kg, route po; conditions: in vivo
[9] = target: Calcium/calmodulin-dependent protein kinase type II subunit gamma (Homo sapiens) (UniProt Q13555); test: Inhibition of CAMK2G (unknown origin) at 1 uM
[10] = target: Dual specificity mitogen-activated protein kinase kinase 7 (Homo sapiens) (UniProt O14733); test: Inhibition of MKK7 (unknown origin) at 1 uM
[11] = target: Homeodomain-interacting protein kinase 4 (Homo sapiens) (UniProt Q8NE63); test: Inhibition of HIPK4 (unknown origin) at 1 uM
[12] = target: Maternal embryonic leucine zipper kinase (Homo sapiens) (UniProt Q14680); test: Inhibition of MELK (unknown origin) at 1 uM
[13] = target: Serine/threonine-protein kinase SIK2 (Homo sapiens) (UniProt Q9H0K1); test: Inhibition of SIK2 (unknown origin) at 1 uM
[14] = target: Serine/threonine-protein kinase DCLK1 (Homo sapiens) (UniProt O15075); test: Inhibition of DCAMKL1 (unknown origin) at 1 uM
[15] = target: Tyrosine-protein kinase JAK2 (Homo sapiens) (UniProt O60674); test: Inhibition of JAK2 (unknown origin) at 1 uM
[16] = target: RAC-gamma serine/threonine-protein kinase (Homo sapiens) (UniProt Q9Y243); test: Inhibition of AKT3 (unknown origin) at 1 uM
[17] = target: TRAF2 and NCK-interacting protein kinase (Homo sapiens) (UniProt Q9UKE5); test: Inhibition of TNIK (unknown origin) at 1 uM
[18] = target: Ribosomal protein S6 kinase alpha-2 (Homo sapiens) (UniProt Q15349); test: Inhibition of RSK3 (unknown origin) at 1 uM
[19] = target: cGMP-dependent protein kinase 1 (Homo sapiens) (UniProt Q13976); test: Inhibition of PKG1beta (unknown origin) at 1 uM
[20] = target: Serine/threonine-protein kinase MRCK beta (Homo sapiens) (UniProt Q9Y5S2); test: Inhibition of MRCKbeta (unknown origin) at 1 uM
[21] = target: Mitogen-activated protein kinase kinase kinase 6 (Homo sapiens) (UniProt O95382); test: Inhibition of MEKK6 (unknown origin) at 1 uM
[22] = target: G protein-coupled receptor kinase 6 (Homo sapiens) (UniProt P43250); test: Inhibition of GRK6 (unknown origin) at 1 uM
[23] = target: CDK4/Cyclin D3 (Homo sapiens) (UniProt P11802+P30281); test: Inhibition of CDK4/cyclin-D3 (unknown origin) at 1 uM; type: protein-complex assay
[24] = target: Serine/threonine-protein kinase PAK 6 (Homo sapiens) (UniProt Q9NQU5); test: Inhibition of PAK6 (unknown origin) at 1 uM
[25] = target: Casein kinase I isoform alpha-like (Homo sapiens) (UniProt Q8N752); test: Inhibition of CK1a1L (unknown origin) at 1 uM
[26] = target: Tyrosine-protein kinase receptor TYRO3 (Homo sapiens) (UniProt Q06418); test: Inhibition of TYRO3 (unknown origin) at 1 uM
[27] = target: Dual serine/threonine and tyrosine protein kinase (Homo sapiens) (UniProt Q6XUX3); test: Inhibition of RIPK5 (unknown origin) at 1 uM
[28] = target: Proto-oncogene tyrosine-protein kinase Src (Homo sapiens) (UniProt P12931); test: Inhibition of c-SRC (unknown origin) at 1 uM
[29] = target: Ephrin type-A receptor 8 (Homo sapiens) (UniProt P29322); test: Inhibition of EPHA8 (unknown origin) at 1 uM
[30] = target: Tyrosine-protein kinase CSK (Homo sapiens) (UniProt P41240); test: Inhibition of CSK (unknown origin) at 1 uM
[31] = target: Non-receptor tyrosine-protein kinase TYK2 (Homo sapiens) (UniProt P29597); test: Inhibition of TYK2 (unknown origin) at 1 uM
[32] = target: Epithelial discoidin domain-containing receptor 1 (Homo sapiens) (UniProt Q08345); test: Inhibition of DDR1 (unknown origin) at 1 uM
[33] = target: Cyclin-dependent kinase 5/CDK5 activator 1 (Homo sapiens) (UniProt Q00535+Q15078); test: Inhibition of CDK5/p35 (unknown origin) at 1 uM; type: protein-complex assay
[34] = target: Serine/threonine-protein kinase VRK1 (Homo sapiens) (UniProt Q99986); test: Inhibition of VRK1 (unknown origin) at 1 uM
[35] = target: Ephrin type-A receptor 3 (Homo sapiens) (UniProt P29320); test: Inhibition of EPHA3 (unknown origin) at 1 uM
[36] = target: Protein-tyrosine kinase 6 (Homo sapiens) (UniProt Q13882); test: Inhibition of BRK (unknown origin) at 1 uM
[37] = target: Mitogen-activated protein kinase 14 (Homo sapiens) (UniProt Q16539); test: Inhibition of p38alpha (unknown origin) at 1 uM
[38] = target: Dual specificity protein kinase CLK1 (Homo sapiens) (UniProt P49759); test: Inhibition of CLK1 (unknown origin) at 1 uM
[39] = target: Casein kinase I isoform delta (Homo sapiens) (UniProt P48730); test: Inhibition of CK1D (unknown origin) at 1 uM
[40] = target: Serine/threonine-protein kinase ULK3 (Homo sapiens) (UniProt Q6PHR2); test: Inhibition of ULK3 (unknown origin) at 1 uM
[41] = target: Tyrosine-protein kinase Yes (Homo sapiens) (UniProt P07947); test: Inhibition of YES (unknown origin) at 1 uM
HCT-116 = test: Cytotoxicity against human HCT-116 cells assessed as reduction in cell viability by CCK8 assay; type: functional, cell-based
[42] = target: Serine/threonine-protein kinase 3 (Homo sapiens) (UniProt Q13188); test: Inhibition of MST2 (unknown origin) at 1 uM

Non-receptor tyrosine-protein kinase TYK2 (Homo sapiens), sequence (P29597 whole entry, the tested form may be a part): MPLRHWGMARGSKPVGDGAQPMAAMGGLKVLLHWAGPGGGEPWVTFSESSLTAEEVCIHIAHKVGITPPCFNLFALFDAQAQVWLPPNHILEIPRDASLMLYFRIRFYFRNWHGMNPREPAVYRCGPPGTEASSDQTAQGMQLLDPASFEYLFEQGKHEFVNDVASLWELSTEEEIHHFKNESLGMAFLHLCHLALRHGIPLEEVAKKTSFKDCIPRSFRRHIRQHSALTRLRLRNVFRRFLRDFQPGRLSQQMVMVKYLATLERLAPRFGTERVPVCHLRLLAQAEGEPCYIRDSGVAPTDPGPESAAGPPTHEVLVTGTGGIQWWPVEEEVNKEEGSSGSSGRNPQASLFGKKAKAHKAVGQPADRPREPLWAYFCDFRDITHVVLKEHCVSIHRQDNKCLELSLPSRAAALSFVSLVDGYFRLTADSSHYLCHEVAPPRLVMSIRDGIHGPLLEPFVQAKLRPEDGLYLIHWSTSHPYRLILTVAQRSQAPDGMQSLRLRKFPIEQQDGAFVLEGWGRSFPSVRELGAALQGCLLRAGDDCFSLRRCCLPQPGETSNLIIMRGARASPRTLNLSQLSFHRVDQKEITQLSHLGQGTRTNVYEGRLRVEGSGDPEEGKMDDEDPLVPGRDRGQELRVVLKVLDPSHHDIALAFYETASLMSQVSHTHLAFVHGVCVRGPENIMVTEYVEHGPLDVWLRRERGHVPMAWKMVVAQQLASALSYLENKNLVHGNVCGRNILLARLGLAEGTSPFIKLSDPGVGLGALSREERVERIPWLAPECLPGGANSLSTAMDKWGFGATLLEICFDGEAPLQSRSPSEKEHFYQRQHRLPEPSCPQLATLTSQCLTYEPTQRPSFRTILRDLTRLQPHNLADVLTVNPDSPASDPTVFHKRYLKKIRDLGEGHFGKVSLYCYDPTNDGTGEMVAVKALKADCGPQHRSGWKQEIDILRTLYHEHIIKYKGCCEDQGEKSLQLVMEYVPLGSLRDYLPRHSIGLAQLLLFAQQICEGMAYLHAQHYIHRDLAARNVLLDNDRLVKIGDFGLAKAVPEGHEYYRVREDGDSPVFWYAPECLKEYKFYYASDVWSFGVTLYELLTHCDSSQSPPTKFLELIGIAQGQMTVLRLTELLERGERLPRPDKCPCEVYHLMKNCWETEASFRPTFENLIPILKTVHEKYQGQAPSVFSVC
Tyrosine-protein kinase JAK2 (Homo sapiens), sequence (O60674 whole entry): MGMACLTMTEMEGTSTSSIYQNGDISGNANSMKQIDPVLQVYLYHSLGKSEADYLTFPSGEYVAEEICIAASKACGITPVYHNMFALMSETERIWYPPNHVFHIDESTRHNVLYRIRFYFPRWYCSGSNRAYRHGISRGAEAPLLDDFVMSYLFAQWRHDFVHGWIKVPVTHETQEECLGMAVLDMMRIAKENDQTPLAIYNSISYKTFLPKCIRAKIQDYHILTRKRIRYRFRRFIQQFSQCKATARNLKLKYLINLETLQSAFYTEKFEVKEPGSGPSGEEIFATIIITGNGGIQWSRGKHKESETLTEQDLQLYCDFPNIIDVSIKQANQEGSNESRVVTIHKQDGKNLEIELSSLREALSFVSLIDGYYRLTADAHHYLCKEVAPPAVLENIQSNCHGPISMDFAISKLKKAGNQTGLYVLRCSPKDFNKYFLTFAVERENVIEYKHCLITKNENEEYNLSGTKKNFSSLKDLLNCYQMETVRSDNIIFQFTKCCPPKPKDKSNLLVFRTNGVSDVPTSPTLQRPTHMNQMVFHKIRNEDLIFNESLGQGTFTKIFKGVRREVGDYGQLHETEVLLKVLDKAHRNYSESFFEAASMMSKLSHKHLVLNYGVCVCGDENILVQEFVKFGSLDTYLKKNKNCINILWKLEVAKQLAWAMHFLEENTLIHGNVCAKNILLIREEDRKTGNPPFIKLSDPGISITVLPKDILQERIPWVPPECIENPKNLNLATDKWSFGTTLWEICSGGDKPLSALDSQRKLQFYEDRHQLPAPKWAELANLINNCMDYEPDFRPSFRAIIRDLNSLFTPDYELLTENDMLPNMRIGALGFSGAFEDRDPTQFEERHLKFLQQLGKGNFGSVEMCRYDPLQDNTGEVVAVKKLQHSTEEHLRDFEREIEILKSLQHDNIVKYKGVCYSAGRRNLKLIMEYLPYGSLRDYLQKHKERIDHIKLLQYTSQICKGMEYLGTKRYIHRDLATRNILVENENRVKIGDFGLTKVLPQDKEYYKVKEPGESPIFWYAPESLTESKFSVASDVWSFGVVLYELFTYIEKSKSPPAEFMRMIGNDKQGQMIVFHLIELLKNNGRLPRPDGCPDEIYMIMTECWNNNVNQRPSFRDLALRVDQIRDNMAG
Dual specificity mitogen-activated protein kinase kinase 7 (Homo sapiens), sequence (O14733 whole entry): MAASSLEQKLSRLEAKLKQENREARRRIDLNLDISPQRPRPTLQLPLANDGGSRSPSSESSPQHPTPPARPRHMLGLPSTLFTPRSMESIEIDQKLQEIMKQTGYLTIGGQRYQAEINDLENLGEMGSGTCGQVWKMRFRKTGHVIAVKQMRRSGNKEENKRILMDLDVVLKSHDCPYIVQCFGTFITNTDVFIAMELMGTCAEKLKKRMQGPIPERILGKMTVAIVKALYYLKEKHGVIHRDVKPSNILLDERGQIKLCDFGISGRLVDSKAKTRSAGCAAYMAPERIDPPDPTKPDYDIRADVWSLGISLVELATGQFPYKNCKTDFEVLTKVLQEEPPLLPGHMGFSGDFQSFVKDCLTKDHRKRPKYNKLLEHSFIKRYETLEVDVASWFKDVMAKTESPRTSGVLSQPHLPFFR
Casein kinase I isoform delta (Homo sapiens), sequence (P48730 whole entry, looked up, canonical isoform): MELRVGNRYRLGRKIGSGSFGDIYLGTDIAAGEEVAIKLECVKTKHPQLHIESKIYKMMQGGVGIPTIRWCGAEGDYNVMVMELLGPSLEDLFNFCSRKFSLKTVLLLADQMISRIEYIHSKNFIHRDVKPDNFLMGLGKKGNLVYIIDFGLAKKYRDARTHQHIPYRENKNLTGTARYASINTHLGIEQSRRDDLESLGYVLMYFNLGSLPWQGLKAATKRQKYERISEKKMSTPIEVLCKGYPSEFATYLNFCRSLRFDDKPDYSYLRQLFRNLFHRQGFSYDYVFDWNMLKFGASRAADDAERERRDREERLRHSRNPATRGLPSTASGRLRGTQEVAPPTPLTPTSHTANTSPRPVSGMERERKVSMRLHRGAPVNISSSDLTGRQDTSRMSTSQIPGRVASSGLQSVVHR
Serine/threonine-protein kinase SIK2 (Homo sapiens), sequence (Q9H0K1 whole entry, looked up): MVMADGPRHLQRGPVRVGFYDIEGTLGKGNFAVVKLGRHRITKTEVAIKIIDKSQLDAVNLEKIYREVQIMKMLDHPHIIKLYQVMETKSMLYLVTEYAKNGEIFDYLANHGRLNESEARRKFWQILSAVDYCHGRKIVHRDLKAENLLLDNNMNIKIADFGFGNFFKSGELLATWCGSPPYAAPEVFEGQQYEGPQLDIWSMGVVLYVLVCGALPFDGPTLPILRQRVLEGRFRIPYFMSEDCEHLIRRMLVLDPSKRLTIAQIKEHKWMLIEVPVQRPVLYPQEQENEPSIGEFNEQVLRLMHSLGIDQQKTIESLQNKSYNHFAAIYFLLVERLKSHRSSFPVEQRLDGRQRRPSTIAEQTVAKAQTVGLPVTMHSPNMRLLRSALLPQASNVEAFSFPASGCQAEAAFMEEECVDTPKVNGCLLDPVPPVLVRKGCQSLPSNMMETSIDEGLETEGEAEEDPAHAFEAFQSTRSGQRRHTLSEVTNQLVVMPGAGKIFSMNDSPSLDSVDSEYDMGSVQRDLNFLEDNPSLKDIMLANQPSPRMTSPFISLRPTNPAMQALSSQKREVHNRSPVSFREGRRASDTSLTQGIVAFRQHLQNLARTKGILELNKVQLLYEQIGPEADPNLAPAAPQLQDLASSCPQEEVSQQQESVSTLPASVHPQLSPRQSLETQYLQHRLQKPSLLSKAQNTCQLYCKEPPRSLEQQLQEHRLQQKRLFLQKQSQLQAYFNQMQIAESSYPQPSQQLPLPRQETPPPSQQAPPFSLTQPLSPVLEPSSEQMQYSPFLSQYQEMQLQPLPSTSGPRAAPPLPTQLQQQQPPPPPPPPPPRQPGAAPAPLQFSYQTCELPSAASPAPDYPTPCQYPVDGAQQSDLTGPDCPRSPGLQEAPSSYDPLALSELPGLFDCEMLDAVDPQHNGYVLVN
Serine/threonine-protein kinase DCLK1 (Homo sapiens), sequence (O15075 whole entry): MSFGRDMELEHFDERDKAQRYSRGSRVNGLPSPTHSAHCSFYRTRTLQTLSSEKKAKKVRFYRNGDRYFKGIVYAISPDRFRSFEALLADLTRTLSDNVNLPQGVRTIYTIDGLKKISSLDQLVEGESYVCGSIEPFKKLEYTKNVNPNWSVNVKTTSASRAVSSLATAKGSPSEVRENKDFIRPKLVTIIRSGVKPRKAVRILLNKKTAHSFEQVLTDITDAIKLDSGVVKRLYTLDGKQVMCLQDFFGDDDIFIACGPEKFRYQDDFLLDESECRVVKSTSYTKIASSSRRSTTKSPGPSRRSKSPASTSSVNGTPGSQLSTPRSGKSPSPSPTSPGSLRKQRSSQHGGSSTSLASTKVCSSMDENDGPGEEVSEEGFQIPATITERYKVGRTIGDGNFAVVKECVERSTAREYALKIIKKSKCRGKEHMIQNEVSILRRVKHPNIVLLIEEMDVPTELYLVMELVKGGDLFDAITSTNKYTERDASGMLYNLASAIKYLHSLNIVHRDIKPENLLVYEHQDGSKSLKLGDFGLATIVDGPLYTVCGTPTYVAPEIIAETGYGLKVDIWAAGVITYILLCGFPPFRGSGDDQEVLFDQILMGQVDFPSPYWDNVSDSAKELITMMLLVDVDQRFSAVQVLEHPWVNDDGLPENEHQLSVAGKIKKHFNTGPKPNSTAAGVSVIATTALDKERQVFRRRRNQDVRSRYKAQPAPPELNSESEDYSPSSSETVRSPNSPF

## OCCOCc1cn(CCNc2nonc2/C(=N/O)Nc2ccc(F)c(Br)c2)nn1
[1]
  inhibition: inactive
[2]
  inhibition: inactive
[3]
  inhibition: inactive
[4]
  AUC(0-t): 3640 ng·h/mL
[5]
  inhibition: inactive
[6]
  inhibition: inactive
Mus musculus
  inhibition: Active
[7]
  inhibition: inactive
[8]
  AUC(0-inf): 3950 ng·h/mL
[9]
  inhibition: inactive
[10]
  inhibition: inactive
[11]
  inhibition: inactive
[12]
  inhibition: inactive
[13]
  inhibition: inactive
[14]
  inhibition: inactive
[15]
  inhibition: inactive
[16]
  inhibition: inactive
[17]
  inhibition: inactive
[18]
  inhibition: inactive
[19]
  inhibition: inactive
[20]
  inhibition: inactive
[21]
  inhibition: inactive
[22]
  inhibition: inactive
[23]
  inhibition: inactive
[24]
  inhibition: inactive
[25]
  inhibition: inactive
[26]
  inhibition: inactive
[27]
  inhibition: inactive
[28]
  inhibition: inactive
[29]
  inhibition: inactive
[30]
  inhibition: inactive
[31]
  inhibition: inactive
[32]
  inhibition: inactive
[33]
  inhibition: inactive
[34]
  inhibition: inactive
[35]
  inhibition: inactive
[36]
  inhibition: inactive
[37]
  inhibition: inactive
[38]
  inhibition: inactive
[39]
  inhibition: inactive
[40]
  inhibition: inactive
[41]
  inhibition: inactive
HCT-116
  IC50: 56.1 µM
[42]
  inhibition: inactive
